# Test results taken from patent US20230414557A1, “NEW THERAPY CONCEPT FOR THE TREATMENT OF CORONA INFECTIONS, ESPECIALLY COVID-19 INFECTIONS” (priority 2020, published 2023).
# Key:
# [1] = test system: hydrogen peroxide (H2O2); assay: production of hydrogen peroxide; type: cell-based; conditions: even at lower concentrations and in the therapeutic range
# [2] = test system: IL-8 (interleukin-8); assay: production of IL-8 in human monocytes of volunteers; type: cell-based; conditions: 1,8-cineole alone
# [3] = test system: TNF-alpha (tumor necrosis factor-alpha); assay: production of TNF-alpha in human monocytes of volunteers; type: cell-based; conditions: 1,8-cineole alone
# [4] = cited from earlier work
# [5] = test system: superoxide production (O2^−-production); assay: PMA-stimulated superoxide production (O2−-production) of human monocytes in vitro, INT formazan; type: cell-based; conditions: RPMI-1640, 20 hours
# [6] = test system: NO-production; assay: NO-production in stimulated human monocytes in vitro; type: cell-based; conditions: 20 hours
# [7] = test system: IL-1beta; assay: LPS-stimulated production of IL-1beta in human monocytes in vitro (ELISA); type: cell-based; conditions: for IL-1beta / effect vs. control inhibition (%): LPS-stimulated human monocytes
# Description: In cell culture supernatants, the production of IL-1beta is determined by ELISA (Cayman Chemical, Ann Arbor, Michigan, USA).
# [8] = test system: superoxide dismutases (SOD); assay: activity of superoxide dismutases; type: cell-based
# [9] = test system: corona viruses; type: cell-based, human
# [10] = test system: COVID-19; assay: thrombocytes from patients suffering from COVID-19 incubated with 1,8-cineole; type: cell-based, human; conditions: thrombocytes from COVID-19 patients incubated with 1,8-cineole
# Text: This antiviral effect of 1,8-cineole in COVID-19 infections is completely unexpected.
# [11] = test system: COVID-19; conditions: human, in vivo; cited from earlier work
# [12] = 1,8-cineole 0.0015 μg/ml (10^−8 mol/l)
# [13] = 1,8-cineole 1.2 μg/ml (8 × 10^−6 mol/l)
# [14] = 1,8-cineole 1.5 μg/ml (10^−5 mol/l)
# [15] = 1,8-cineole 3.0 μg/ml (2 × 10^−5 mol/l)
molecule,measurement,setting,value
"CC12CCC(CC1)C(C)(C)O2 [1,8-cineole, 1,3,3-trimethyl-2-oxabicyclo[2.2.2]octane]",production of H2O2,[1],inhibits
same,production of IL-8,[2],significant inhibitory effect
same,production of TNF-alpha,[3],significant inhibitory effect
same,solubility in water,[4],insoluble in water
same,INT-formazan,[5]; [12],5364 ± 229 nmol/10^5
same,comparison to control (%),[5]; [12],+27.6 ± 4%
same,INT-formazan,[5]; [13],4099 ± 234 nmol/10^5
same,comparison to control (%),[5]; [13],−2.5 ± 6%
same,INT-formazan,[5]; [14],2438 ± 389 nmol/10^5
same,comparison to control (%),[5]; [14],−42 ± 16%
same,INT-formazan,[5]; [15],634 ± 139 nmol/10^5
same,comparison to control (%),[5]; [15],−84.9 ± 22%
same,NO-production,"[6]; low subtherapeutic concentrations of 1,8-cineole",inhibit NO-production
same,NO-production,"[6]; therapeutic dose range of 1,8-cineole",strong or significant stimulatory effects on NO-production
same,"monocyte IL-1beta production, result in words","[7]; 10^−6 mol/l, compared with the control",significantly inhibited
same,IL-1beta,"[7]; 10^−6 mol/l, 20 hours",3548 ± 600 pg/5 × 10^−4 cells
same,effect vs. control inhibition (%),"[7]; 10^−6 mol/l, 20 hours",32.4 ± 17%
same,superoxide dismutase activity,[8],partially inhibited
same,"outbreak of infection, especially hypercytokinemia",[9],prevented or reduced
same,virus replication and production of hyperinflammatory cytokines in thrombocytes,"[9]; healthy thrombocytes incubated with COVID-19, subsequently incubation with 1,8-cineole",inhibited
same,"course of infection, especially hypercytokinemia",[10],prevented or attenuated
CCN(CC)CCCC(C)Nc1ccnc2cc(Cl)ccc12 (stereo not shown) [Chloroquine],efficacy in COVID-19,[11],no evidence of efficacy
"C[C@@H]1C[C@H]2[C@@H]3CCC4=CC(=O)C=C[C@]4(C)[C@@]3(F)[C@@H](O)C[C@]2(C)[C@@]1(O)C(=O)CO [dexamethasone, 9-fluoro-16alpha-methylprednisolone]",IL-1beta,[7]; dex. 10^−9 mol/l,2655 ± 546 pg/5 × 10^−4 cells
same,effect vs. control inhibition (%),[7]; dex. 10^−9 mol/l,49.5 ± 20%
same,IL-1beta,[7]; dex. 10^−12 mol/l,5245 ± 1027 pg/5 × 10^−4 cells
same,effect vs. control inhibition (%),[7]; dex. 10^−12 mol/l,0.1 ± 19%
CCN(CCO)CCCC(C)Nc1ccnc2cc(Cl)ccc12 (stereo not shown) [hydroxychloroquine],efficacy in COVID-19,[11],no evidence of efficacy
Tocilizumab: monoclonal antibody approved for rheumatoid arthritis and cytokine release syndrome,efficacy in COVID-19,[11],ineffective
